Reference: patent US9018213B2, “Alicyclic[c] benzopyrone derivatives and uses thereof” (Huazhong University of Science & Technology, priority 2011, dated 2015)

Key:
5HT1A receptor = 5HT1A receptor (Rattus norvegicus (Rat), UniProt P19327); assay: 5HT1A receptor binding assay (3H-8-OH-DPAT)
Method: Preparation of 5HT1A Membrane
Incubation at 37° C. was conducted for 10 min, the weight of the tubes were adjusted using a balance after incubation. […] Centrifugation was conducted and repeated 3 times.
Materials for the Receptor Binding Assay

D3 receptor = D3 receptor (Homo sapiens (Human), UniProt P35462); assay: D3 receptor competitive binding assay ([3H]-Spiperone, HEK-293 cells)
Method: After the cells were centrifuged at 1000 rpm for 5 min, the supernatant was discarded, and the cell pellet was collected and stored in a -20° C. fridge for reservation. It was re-suspended with Tris-Cl (pH 7.4) in the assay. […] Tris was divided into aliquots by […] Technology Inc. Procedures Competitive binding test for receptors: 20 μl of each of the test compounds and 20 μl of the radioactive ligand together with 160 μl of the receptor proteins were added into the reaction tubes, and the final concentrations of the test compound and the positive drug were all 10 μmol/L. After 50 min of incubation in 30° C. water bath, the tubes were immediately moved to ice bath to terminate the reactions. GF/C glass fiber filter papers were used for rapid sucking filtration on a Millipore cell sample collector, elution buffer (50 mM Tris-HCl, PH 7.4) was applied for 3 ml×3 times, and microwave was applied for 4-5 min for drying. The filter papers were moved into 0.5 ml centrifuge tubes, and 500 μl of lipid-soluble scintillation solution was added. The tubes were allowed to stand still for over 30 min in dark, and the intensities of radioactivity were measured by a counter.

5HT2A receptor = 5HT2A receptor (Rattus norvegicus (Rat), UniProt P14842); assay: 5HT2A receptor binding assay ([3H]-Ketanserin)
5HT2C receptor = 5HT2C receptor (Rattus norvegicus (Rat), UniProt P08909); assay: 5HT2C receptor binding assay ([3H]-mesulergine)
in vivo = conditions: both sexes, mouse, in vivo; po, mice, single intragastric administration; read-out: LD50
Method: Limit Test of Sequential Assay
KM mice (half male and half female) were randomly divided into several groups (with 2-5 mice in each group), which were respectively the 2000 mg/kg groups for each compound, and the solvent group. 0.2 ml/10 g were administered intragastrically. The death of the animals in 3 days were observed. (In the case 3 or more animals survived in 3 days without notable abnormity in their life states, the observation was continued until the assay was completed in 7 days. In the case 3 or more animals died in 3 days, the median lethal dose method was used to determine the LD50).
Pre-Assay for the Median Lethal Dose Method
0.2 ml/10 g were administered intragastrically, and the death of the animals in 1-3 days were observed.

D2 receptor = D2 receptor (Rattus norvegicus (Rat), UniProt P61169); assay: D2 receptor inhibition binding assay (3H-Spiperone)
Method: Rats were sacrificed by cervical dislocation on ice. Cerebral cortex was rapidly taken, and 2 cerebral cortexes were combined into a centrifuge tube, to which 3 ml of buffer (0.05 M Tris-HCl buffer, containing NaCl 120 mM, KCl 5 mM, MgCl2 1 mM, CaCl2 1 mM) was added, homogenization was conducted for 3-4 s at level 4 for four times, and then 5 ml of buffer was then added. The weight of the homogenized tubes were adjusted using a balance, and centrifugation was conducted at 12000 r, 4° C. for 20 min. The supernatant was discarded, and 3 ml of B solution was added. Vortex mixer was used for blending, and then 5 ml of B solution was added. Centrifugation was conducted and repeated 3 times. After the centrifugations, the supernatant was discarded, and the pellets were stored at −80° C. for future use.
Beckman LS-6500 Multi-function Liquid Scintillation Counter was used.
(1) The prepared membrane was first applied with appropriate amount of homogenized liquid, and homogenizer was used for evenly dispersing. 15 tubes were mixed into a 100 ml container, and appropriate amount of homogenized liquid was added to give 50 ml of membrane suspension, which was reserved for future use.
(2) 100 μL of membrane preparation and 100 μL of buffer were added into each reaction tube.
(3) 100 μL of homogenized liquid was added into the total binding tube (TB), 100 μL of Butaclamol (final concentration 10^−5 M) was added into the non-specific binding tube (NB), and 100 μL of the test compound (final concentration 10^−5 M) was added into the specific binding tube (SB) for each compound.
(5) Each of the reaction tubes was incubated at 37° C. for 20 min. After the reaction was completed, the bound ligands were rapidly filtered under reduced pressure, and the ice-chilled assay buffer was used for adequate washing. The filter was taken out and put into a 3 ml scintillation vial, and 2 ml of toluene scintillation solution was added and blended.
(6) The scintillation vials were put into Liquid Scintillation Counter for counting. Inhibitory rate (I %)=(Total binding tube cpm−compound cpm)/(Total binding tube cpm−non-specific binding tube cpm)×100%
Each assay for the compounds was conducted in duplicate.

mice of Kunming breed = assay: MK-801 induced high activity; type: in vivo
Method: Healthy mice of Kunming breed (with half male and half female, (20±2) g) were provided by Qinglongshan Animal Cultivation Center, Nanjing.
Ascorbic acid was provided by Sinopharm Chemical Reagent Co. Ltd.
Tween 80, with the concentration of 10%.
Subsequently, the spontaneous activities of the mice of each group in 90 min were measured.

KM mice [1] = assay: Apomorphine induced clambering assay of mice; type: in vivo; conditions: for Scoring (value), apomorphine induced clambering: x ± s, n = 10
Method: Apomorphine Induced Clambering Assay of Mice
Healthy KM mice (male, with body weight of 18-22 g) were provided by Qinglongshan Animal Cultivation Center, Nanjing.
Apomorphine provided by Sigma Company was dissolved in 0.9% NaCl (containing 0.1% vitamin C) before use, and was freshly formulated before use.
Vitamin C, F20061113, was provided by Sinopharm Chemical Reagent Co. Ltd.
Sodium chloride injection, H32026305, was provided by Xuzhou No. 5 Pharmaceutical Factory Co. Ltd.
Instruments: self-made clambering cage, chronograph.
Procedures: apomorphine induced clambering assay of mice
After 5 min of adaptation, the behaviors of the mice at 10-11, 20-21, and 30-31 min after the injection of apomorphine were observed and scored. Scoring criteria: 4 paws on the floor was scored as 0; 2 forepaws on the cage was scored as 1; and 4 paws on the cage was scored as 2.

KM mice [2] = assay: Catalepsy assay; conditions: mouse, in vivo
Method: (§1) Healthy mice of Kunming breed (with half male and half female, (22±2) g) were provided by Qinglongshan Animal Cultivation Center, Nanjing.
(§2) The durations for the mice to maintain the posture with the two forepaws on the bars were recorded, and 30 s of spasticity without moving was considered as the positive response. In the case the forepaws of the mice were not put down persistently, the observation was terminated at 60 s. The numbers of animals with positive response in each of the compound dosage groups were counted.

Catalepsy assay = conditions: both, Kunming (KM), mouse, in vivo, po
Method: as §1, §2

Sequence of D2 receptor (P61169 whole entry): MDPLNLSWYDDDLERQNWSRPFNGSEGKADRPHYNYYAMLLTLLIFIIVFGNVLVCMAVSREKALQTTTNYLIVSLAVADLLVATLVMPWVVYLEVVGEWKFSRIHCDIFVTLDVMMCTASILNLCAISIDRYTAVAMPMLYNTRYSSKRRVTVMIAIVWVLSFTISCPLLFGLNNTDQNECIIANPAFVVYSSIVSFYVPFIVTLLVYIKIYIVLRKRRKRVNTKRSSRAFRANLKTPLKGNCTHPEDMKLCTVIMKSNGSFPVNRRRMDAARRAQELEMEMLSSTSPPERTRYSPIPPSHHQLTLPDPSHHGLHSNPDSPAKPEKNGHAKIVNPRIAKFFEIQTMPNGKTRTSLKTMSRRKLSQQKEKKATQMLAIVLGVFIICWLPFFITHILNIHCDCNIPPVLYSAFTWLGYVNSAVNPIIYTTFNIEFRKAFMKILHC
Sequence of 5HT2C receptor (P08909 33-460): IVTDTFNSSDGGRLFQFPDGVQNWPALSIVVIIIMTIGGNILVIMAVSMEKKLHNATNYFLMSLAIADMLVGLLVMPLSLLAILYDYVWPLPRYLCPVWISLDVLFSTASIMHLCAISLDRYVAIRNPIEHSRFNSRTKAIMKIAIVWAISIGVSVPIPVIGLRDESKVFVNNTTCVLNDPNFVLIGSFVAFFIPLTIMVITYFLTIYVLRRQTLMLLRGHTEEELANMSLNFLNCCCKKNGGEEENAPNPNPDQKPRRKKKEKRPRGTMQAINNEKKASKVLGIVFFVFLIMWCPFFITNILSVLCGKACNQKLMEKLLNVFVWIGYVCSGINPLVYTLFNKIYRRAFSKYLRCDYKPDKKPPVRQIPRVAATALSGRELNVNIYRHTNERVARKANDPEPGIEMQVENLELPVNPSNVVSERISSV
Sequence of 5HT2A receptor (P14842 whole entry): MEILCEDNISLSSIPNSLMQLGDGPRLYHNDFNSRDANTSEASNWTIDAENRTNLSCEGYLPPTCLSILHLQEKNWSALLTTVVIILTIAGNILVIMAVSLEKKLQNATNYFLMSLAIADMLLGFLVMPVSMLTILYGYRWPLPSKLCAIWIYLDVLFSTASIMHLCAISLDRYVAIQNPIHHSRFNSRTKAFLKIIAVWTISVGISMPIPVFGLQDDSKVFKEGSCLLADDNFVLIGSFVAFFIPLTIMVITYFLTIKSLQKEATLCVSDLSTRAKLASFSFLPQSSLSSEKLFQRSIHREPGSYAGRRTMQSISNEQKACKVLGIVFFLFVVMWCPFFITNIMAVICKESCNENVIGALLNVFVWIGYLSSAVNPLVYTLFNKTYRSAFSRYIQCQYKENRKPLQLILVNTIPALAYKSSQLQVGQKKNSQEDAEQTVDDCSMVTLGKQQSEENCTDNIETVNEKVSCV
Sequence of 5HT1A receptor (P19327 whole entry): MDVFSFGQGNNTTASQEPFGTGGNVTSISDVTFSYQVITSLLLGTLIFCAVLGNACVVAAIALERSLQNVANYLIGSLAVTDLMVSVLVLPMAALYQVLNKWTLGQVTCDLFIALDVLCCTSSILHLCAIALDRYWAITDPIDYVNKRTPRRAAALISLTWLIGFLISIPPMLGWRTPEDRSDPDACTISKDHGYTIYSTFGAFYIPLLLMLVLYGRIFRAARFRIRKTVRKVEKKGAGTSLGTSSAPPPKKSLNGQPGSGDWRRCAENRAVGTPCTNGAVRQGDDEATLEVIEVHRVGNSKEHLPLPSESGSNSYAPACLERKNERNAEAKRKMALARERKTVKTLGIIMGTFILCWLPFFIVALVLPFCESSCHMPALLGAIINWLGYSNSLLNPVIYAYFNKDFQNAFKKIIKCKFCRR
Sequence of D3 receptor (P35462 whole entry): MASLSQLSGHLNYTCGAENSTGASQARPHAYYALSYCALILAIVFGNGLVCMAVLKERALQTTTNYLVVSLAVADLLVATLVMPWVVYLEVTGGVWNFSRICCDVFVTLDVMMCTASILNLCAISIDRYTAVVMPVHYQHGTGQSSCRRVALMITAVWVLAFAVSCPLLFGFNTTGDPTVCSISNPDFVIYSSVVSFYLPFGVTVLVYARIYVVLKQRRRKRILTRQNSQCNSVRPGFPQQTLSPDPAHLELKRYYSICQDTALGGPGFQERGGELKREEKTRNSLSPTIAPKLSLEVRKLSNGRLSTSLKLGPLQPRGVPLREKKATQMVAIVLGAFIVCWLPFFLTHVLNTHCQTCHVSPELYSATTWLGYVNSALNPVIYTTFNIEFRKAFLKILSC

Structure (SMILES): COc1ccccc1N1CCN(CCCCOc2ccc3c4c(c(=O)oc3c2)CCC4)CC1 [Compound 7, 7-{4-[4-(2-methoxyphenyl)piperazin-1-yl]-butoxy}-2,3-dihydro-1H-cyclopenteno[c]benzopyran-4-one]
- IC50 (5HT1A receptor): 0.08 nM
- affinity for 5-HT1A receptor (in words) (5HT1A receptor; in vitro assay): relatively stronger affinities
- IC50 (D3 receptor): 7.4 nM
- affinity for D3 receptor (in words) (D3 receptor; in vitro assay): relatively stronger affinities
- IC50 (5HT2A receptor): 0.78 nM
- affinity for 5-HT2A receptor (in words) (5HT2A receptor; in vitro assay): relatively stronger affinities
- IC50 (5HT2C receptor): 1300 nM
- affinity for 5HT2C (in words) (5HT2C receptor; in vitro assay): lower affinity
- LD50 (in vivo): > 2000 mg/kg
- IC50 (D2 receptor): 2.1 nM
- affinity for D2 receptor (in words) (D2 receptor; in vitro assay): relatively stronger affinities
- ED50 (mice of Kunming breed; Mus musculus, po, mice): 2.05 mg/kg
- effect on MK-801 induced high activity (in words) (mice of Kunming breed; compared to the model group): significantly improve
- ED50 (KM mice [1]; Mus musculus, po, mice, read-out: apomorphine induced clambering ED50): 0.13 mg/kg
- effect on apomorphine induced clambering symptoms (in words) (KM mice [1]; compared to the model group): effectively improve
- Scoring (value), apomorphine induced clambering (KM mice [1]; dosage 3 mg/kg): 3.50 ± 1.96
- Scoring (value), apomorphine induced clambering (KM mice [1]; dosage 10 mg/kg): 2.60 ± 1.58
- Scoring (value), apomorphine induced clambering (KM mice [1]; dosage 30 mg/kg): 1.80 ± 1.40
- Scoring (value), apomorphine induced clambering (KM mice [1]; dosage 100 mg/kg): 0.00 ± 0.00
- EPS at effective dosage (in words) (KM mice [2]): did not cause EPS at effective dosage
- ED50 (Catalepsy assay): 261 mg/kg
